Test results as given in patent US20240317744A1, “Bicyclic Ureas As Kinase Inhibitors” (Incyte Corporation, priority 2023, published 2024).

What was measured:
[1] = molecular target: catalytic domain (JH1, amino acids 808-1132) of human JAK2 (Homo sapiens, UniProt O60674); assay: JAK2 HTRF Enzyme Activity Assay; assay type: biochemical; settings: ATP 30 µM, 60 minutes at 25° C.; read-out: V617F ENZ 30 UM
[2] = molecular target: T1, pseudo-kinase domain (JH2, amino-acids 536-812) of human V617F mutant JAK2 (Homo sapiens, UniProt O60674, F794H/V617F/W659A/W777A); assay: JAK2 LanthaScreen JH2-V617F Binding Assay; settings: JAK2 JH2-V617F 0.26 nM, 50 nM tracer, 1 hour at 25° C.; read-out: JH2 BIND V617F
T1 construct: pseudo-kinase domain (JH2, amino-acids 536-812 with 3 surface mutations W659A, W777A, F794H); His (C); purchased BPS Bioscience 79498; host or cells: baculovirus expression system
Method in brief: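 This is a TR-FRET tracer-displacement format with a 1 h, 25 °C incubation. It combined 0.26 nM baculovirus-expressed biotinylated JH2-V617F, 50 nM fluorescent JAK2-JH2 tracer and 0.25 nM streptavidin-Tb cryptate in 50 mM Tris pH 7.5, 10 mM MgCl2, 5 mM DTT. Background came from 2 mM ATP, and IC50 values were from four-parameter dose-response fits.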

[3] = molecular target: T2, pseudo-kinase domain (JH2, amino-acids 536-812) of human Wild Type JAK2 (Homo sapiens, UniProt O60674, F794H/W659A/W777A); assay: JAK2 LanthaScreen JH2-WT Binding Assay; settings: JAK2 JH2-WT 0.145 nM, 50 nM tracer, 1 hour at 25° C.; read-out: JH2 BIND WT
T2 construct: pseudo-kinase domain (JH2, amino-acids 536-812 with 3 surface mutations W659A, W777A, F794H); His (C); purchased BPS Bioscience 79463; host or cells: baculovirus expression system
Method: Example B. JAK2 LanthaScreen JH2-WT Binding Assay
JAK2 JH2-WT binding assay utilizes pseudo-kinase domain (JH2, amino-acids 536-812 with 3 surface mutations W659A, W777A, F794H) of human Wild Type JAK2 expressed as C-terminal His-Avi-tagged, biotinylated protein in a baculovirus expression system (BPS Bioscience, Catalog #79463). The assay was conducted in black 384-well polystyrene plates in a final reaction volume of 20 μL. JAK2 JH2-WT (0.145 nM) was incubated with compounds (100 nL serially diluted in DMSO) in the presence of 50 nM Fluorescent JAK2-JH2 Tracer (MedChem Express Catalog #HY-102055) and 0.25 nM Streptavidin-Tb cryptate (Cisbio Part #610SATLB) in assay buffer (50 mM Tris, pH=7.5, 10 mM MgCl2, 0.01% Brij-35, 0.1% BSA, 1 mM EGTA, 5% Glycerol and 5 mM DTT). Non-specific binding was accessed in the presence of 2 mM ATP. After incubation for 1 hour at 25° C., LanthaScreen signals were read on a PHERAstar FS plate reader (BMG LABTECH). Data was analyzed with IDBS XLfit and GraphPad Prism 5.0 software using a four parameter dose response curve to determine IC50 for each compound.

[4] = molecular target: T3, catalytic domain (JH1, amino acids 826-1132) of human JAK2 (Homo sapiens, UniProt O60674); assay: JAK2 LanthaScreen JH1 Binding Assay; settings: JAK2 JH1 1.5 nM, 50 nM tracer, 2 hours at 25° C.; read-out: JH1 BIND
T3 construct: catalytic domain (JH1, amino acids 826-1132) of human JAK2; FLAG (N); biotin (biotinylated); purchased Carna Biosciences 08-445-20N; host or cells: baculovirus expression system
Method: Example A. JAK2 LanthaScreen JH1 Binding Assay
JAK2 JH1 binding assay utilizes catalytic domain (JH1, amino acids 826-1132) of human JAK2 expressed as N-terminal FLAG-tagged, biotinylated protein in a baculovirus expression system (Carna Biosciences, Product #08-445-20N). The assay was conducted in black 384-well polystyrene plates in a final reaction volume of 20 μL. JAK2 JH1 (1.5 nM) was incubated with compounds (100 nL serially diluted in DMSO) in the presence of 50 nM fluorescent JAK2-JH1 tracer and 0.5 nM Streptavidin-Tb cryptate (Cisbio Part #610SATLB) in assay buffer (50 mM Tris, pH=7.5, 10 mM MgCl2, 0.01% Brij-35, 0.1% BSA, 1 mM EGTA, 5% Glycerol and 5 mM DTT). Non-specific binding was accessed in the presence of 2 mM ATP. After incubation for 2 hours at 25° C., LanthaScreen signals were read on a PHERAstar FS plate reader (BMG LABTECH). Data was analyzed with IDBS XLfit and GraphPad Prism 5.0 software using a four parameter dose response curve to determine IC50 for each compound.

Chain of catalytic domain (JH1, amino acids 808-1132) of human JAK2 (O60674 808-1132 limits assumed): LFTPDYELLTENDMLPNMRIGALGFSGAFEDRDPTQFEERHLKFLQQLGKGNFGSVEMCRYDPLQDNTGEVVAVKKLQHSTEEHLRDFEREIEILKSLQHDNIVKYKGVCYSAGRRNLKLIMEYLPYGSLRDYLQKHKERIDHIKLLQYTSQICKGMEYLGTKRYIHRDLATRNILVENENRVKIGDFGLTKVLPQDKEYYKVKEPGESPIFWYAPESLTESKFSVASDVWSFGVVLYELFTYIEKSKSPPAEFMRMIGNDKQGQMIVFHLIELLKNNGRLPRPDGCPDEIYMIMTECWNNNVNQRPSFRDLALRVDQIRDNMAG
T2 sequence (O60674 536-812 W659A/W777A/F794H): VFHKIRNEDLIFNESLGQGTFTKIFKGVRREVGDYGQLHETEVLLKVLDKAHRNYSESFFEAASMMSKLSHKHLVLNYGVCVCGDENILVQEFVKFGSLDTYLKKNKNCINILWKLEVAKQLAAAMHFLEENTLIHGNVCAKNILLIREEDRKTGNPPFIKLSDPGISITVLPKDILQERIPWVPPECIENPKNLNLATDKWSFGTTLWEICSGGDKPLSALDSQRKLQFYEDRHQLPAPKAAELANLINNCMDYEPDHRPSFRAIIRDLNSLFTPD
T1 sequence (O60674 536-812 V617F/W659A/W777A/F794H): as the sequence (O60674 536-812 W659A/W777A/F794H) above, with V82F counted along it
T3 sequence (O60674 826-1132): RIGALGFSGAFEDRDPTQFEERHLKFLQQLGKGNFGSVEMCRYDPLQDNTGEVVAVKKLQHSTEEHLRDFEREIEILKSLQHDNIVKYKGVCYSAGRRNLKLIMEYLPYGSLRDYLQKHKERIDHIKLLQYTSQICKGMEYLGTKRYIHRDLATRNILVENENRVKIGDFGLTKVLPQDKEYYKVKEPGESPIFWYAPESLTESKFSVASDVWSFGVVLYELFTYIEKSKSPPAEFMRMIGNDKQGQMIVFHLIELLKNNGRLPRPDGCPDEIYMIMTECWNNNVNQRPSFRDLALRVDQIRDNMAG

SMILES	IC50 [1] [nM]	IC50 [2] [nM]	IC50 [3] [nM]	IC50 [4] [nM]
[2H]C([2H])([2H])n1c(=O)n([C@@H]2CC[C@@H](NC(=O)OC)C2)c2cc(Nc3ccc4cc(-c5cnn(C)c5)cc(C(F)(F)F)c4n3)ncc21 [Example 20, Methyl ((1R,3R)-3-(3-(methyl-d3)-6-((6-(1-methyl-1H-pyrazol-4-yl)-8-(trifluoromethyl)quinolin-2-yl)amino)-2-oxo-2,3-dihydro-1H-imidazo[4,5-c]pyridin-1-yl)cyclopentyl)carbamate]	> 1000	≤ 10	≤ 10	> 1000
COC(=O)Nc1cc(Nc2cc3c(cn2)n(C)c(=O)n3[C@@H]2CC[C@@H](NC(=O)OC)C2)cc(C2CCCOC2)c1 (stereo partly drawn) [Example 21, Methyl (3-((1-((1R,3R)-3-((methoxycarbonyl)amino)cyclopentyl)-3-methyl-2-oxo-2,3-dihydro-1H-imidazo[4,5-c]pyridin-6-yl)amino)-5-(tetrahydro-2H-pyran-3-yl)phenyl)carbamate]	> 1000	≤ 10	≤ 10	> 1000
COC(=O)N[C@@H]1CC[C@@H](n2c(=O)n(C)c3cnc(Nc4cccc(OC5CCC(C#N)CC5)n4)cc32)C1 (stereo partly drawn) [Example 22, Methyl ((1R,3R)-3-(6-((6-((4-cyanocyclohexyl)oxy)pyridin-2-yl)amino)-3-methyl-2-oxo-2,3-dihydro-1H-imidazo[4,5-c]pyridin-1-yl)cyclopentyl)carbamate]	> 1000	10 to 100	10 to 100	> 1000
COC(=O)N[C@@H]1CC[C@@H](n2c(=O)n(C)c3cnc(Nc4cccc(Oc5ccc6ncccc6c5)n4)cc32)C1 [Example 23, Methyl ((1R,3R)-3-(3-methyl-2-oxo-6-((6-(quinolin-6-yloxy)pyridin-2-yl)amino)-2,3-dihydro-1H-imidazo[4,5-c]pyridin-1-yl)cyclopentyl)carbamate]	> 1000	10 to 100	10 to 100	> 1000
COC(=O)Nc1cc(Nc2cc3c(cn2)n(C)c(=O)n3[C@H]2C[C@H](NC(=O)C3CC3)C2)cc(-c2cnn(C)c2)c1 [Example 24, Methyl (3-((1-((1r,3r)-3-(cyclopropanecarboxamido)cyclobutyl)-3-methyl-2-oxo-2,3-dihydro-1H-imidazo[4,5-c]pyridin-6-yl)amino)-5-(1-methyl-1H-pyrazol-4-yl)phenyl)carbamate]	> 1000	10 to 100	10 to 100	> 1000
CCOC(=O)NC1CC2(C1)CC(n1c(=O)n(C)c3cnc(Nc4cc(NC(=O)OC)cc(-c5cnn(C)c5)c4)cc31)C2 (centres unmarked) [Example 25, Methyl (3-((1-(6-((ethoxycarbonyl)amino)spiro[3.3]heptan-2-yl)-3-methyl-2-oxo-2,3-dihydro-1H-imidazo[4,5-c]pyridin-6-yl)amino)-5-(1-methyl-1H-pyrazol-4-yl)phenyl)carbamate]	> 1000	100 to 500	10 to 100	> 1000
COC(=O)Nc1cc(Nc2cc3c(cn2)n(C)c(=O)n3C2CC3(CC(NS(=O)(=O)C4CC4)C3)C2)cc(-c2cnn(C)c2)c1 (centres unmarked) [Example 26, Methyl (3-((1-(6-(cyclopropanesulfonamido)spiro[3.3]heptan-2-yl)-3-methyl-2-oxo-2,3-dihydro-1H-imidazo[4,5-c]pyridin-6-yl)amino)-5-(1-methyl-1H-pyrazol-4-yl)phenyl)carbamate]	> 1000	10 to 100	10 to 100	> 1000
COC(=O)Nc1cc(Nc2cc3c(cn2)n(C)c(=O)n3C2CC3(C2)CN(C(=O)OC)C3)cc(-c2cnn(C)c2)c1 [Example 27, Methyl 6-(6-((3-((methoxycarbonyl)amino)-5-(1-methyl-1H-pyrazol-4-yl)phenyl)amino)-3-methyl-2-oxo-2,3-dihydro-1H-imidazo[4,5-c]pyridin-1-yl)-2-azaspiro[3.3]heptane-2-carboxylate]	> 1000	100 to 500	100 to 500	> 1000
COC(=O)Nc1cc(Nc2cc3c(cn2)n(C)c(=O)n3[C@H]2C[C@H](C#N)C2)cc(-c2cnn(C)c2)c1 [Example 28, Methyl (3-((1-((1r,3r)-3-cyanocyclobutyl)-3-methyl-2-oxo-2,3-dihydro-1H-imidazo[4,5-c]pyridin-6-yl)amino)-5-(1-methyl-1H-pyrazol-4-yl)phenyl)carbamate]	> 1000	100 to 500	10 to 100	> 1000
COC(=O)Nc1cc(Nc2cc3c(cn2)n(C)c(=O)n3[C@H]2C[C@](C)(NC(=O)OC)C2)cc(-c2cnn(C)c2)c1 [Example 29, Methyl (3-((1-((1r,3r)-3-((methoxycarbonyl)amino)-3-methylcyclobutyl)-3-methyl-2-oxo-2,3-dihydro-1H-imidazo[4,5-c]pyridin-6-yl)amino)-5-(1-methyl-1H-pyrazol-4-yl)phenyl)carbamate]	> 1000	100 to 500	100 to 500	> 1000
COC(=O)Nc1cc(Nc2cc3c(cn2)n(C)c(=O)n3[C@@H]2CCC(F)(F)C2)cc(-c2cnn(C)c2)c1 [Example 30, Methyl (R)-(3-((1-(3,3-difluorocyclopentyl)-3-methyl-2-oxo-2,3-dihydro-1H-imidazo[4,5-c]pyridin-6-yl)amino)-5-(1-methyl-1H-pyrazol-4-yl)phenyl)carbamate]	> 1000	100 to 500	10 to 100	> 1000
COC(=O)Nc1cc(Nc2cc3c(cn2)n(C)c(=O)n3[C@@H]2CC[C@H](F)C2)cc(-c2cnn(C)c2)c1 [Example 31, Methyl (3-((1-((1R,3S)-3-fluorocyclopentyl)-3-methyl-2-oxo-2,3-dihydro-1H-imidazo[4,5-c]pyridin-6-yl)amino)-5-(1-methyl-1H-pyrazol-4-yl)phenyl)carbamate]	> 1000	10 to 100	10 to 100	> 1000
COC(=O)N[C@@H]1CC[C@@H](n2c(=O)n(C)c3cnc(Nc4ccc5cc(-c6cnn(C)c6)ccc5n4)cc32)C1 [Example 32, Methyl ((1R,3R)-3-(3-methyl-6-((6-(1-methyl-1H-pyrazol-4-yl)quinolin-2-yl)amino)-2-oxo-2,3-dihydro-1H-imidazo[4,5-c]pyridin-1-yl)cyclopentyl)carbamate]	> 1000	100 to 500	100 to 500	> 1000
COC(=O)N[C@@H]1CC[C@@H](n2c(=O)n(C)c3cnc(Nc4ccc5cccc(-c6cnn(C)c6)c5n4)cc32)C1 [Example 33, Methyl ((1R,3R)-3-(3-methyl-6-((8-(1-methyl-1H-pyrazol-4-yl)quinolin-2-yl)amino)-2-oxo-2,3-dihydro-1H-imidazo[4,5-c]pyridin-1-yl)cyclopentyl)carbamate]	> 1000	10 to 100	10 to 100	> 1000
